Test results from patent US5061794A, “Cephalosporin derivatives, and antibacterial agents” (priority 1986, dated 1991).
Where a name gives a salt, the structure may show the parent alone. Read-outs that look alike come from different tables or passages of the source.

Legend:
[1] = system: E. coli CSH(RE45); assay: microbe, parasite or virus in culture; format: cell-based; settings: Escherichia coli, 16 h, read-out: Minimum Inhibitory Concentration (MIC), *E. coli CSH(RE45), lactamase-producing strain; 10^6 CFU/ml
Summary of the method: (§1)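 MIC in μg/ml, read after 16 h at 37° C. on Mueller Hinton agar carrying graded compound levels; inoculum 10^6 CFU/ml from overnight Mueller Hinton broth.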

[2] = system: E. coli CSH2 (RK1); assay: microbe, parasite or virus in culture; format: cell-based; settings: Escherichia coli, 16 h, read-out: Minimum Inhibitory Concentration (MIC), *E. coli CSH2 (RK1), lactamase-producing strain; 10^6 CFU/ml
Summary of the method: as §1

[3] = system: E. cloacae 963; assay: in vitro antibacterial activity, agar plate dilution method (MIC); format: cell-based; settings: 10^6 CFU/ml
Summary of the method: as §1

[4] = system: E. cloacae Nek 39; assay: as above; format: cell-based; settings: Enterobacter cloacae, NEK39, 16 h, 10^6 CFU/ml
Summary of the method: as §1

[5] = system: E. coli GN5482; assay: as above; format: cell-based; settings: Escherichia coli, GN5482, 16 h, read-out: Minimum Inhibitory Concentration (MIC)
Summary of the method: as §1

[6] = system: E. coli NIHJ JC2; assay: as above; format: cell-based; settings: Escherichia coli
Summary of the method: as §1

[7] = system: K. oxytoca GN10650; assay: as above; format: cell-based; settings: Klebsiella oxytoca, 10^6 CFU/ml
Summary of the method: as §1

[8] = system: K. pneumoniae No. 42; assay: as above; format: cell-based; settings: Klebsiella pneumoniae, 10^6 CFU/ml
Summary of the method: as §1

[9] = system: K. pneumoniae PCI-602; assay: as above; format: cell-based; settings: Klebsiella pneumoniae, PCI602, 16 h, 10^6 CFU/ml
Summary of the method: as §1

[10] = system: M. morganii GN5407; assay: as above; format: cell-based; settings: Morganella morganii, GN5407, 16 h, read-out: Minimum Inhibitory Concentration (MIC), *M. morganii GN5407, lactamase-producing strain; 10^6 CFU/ml
Summary of the method: as §1

[11] = system: P. vulgaris HX-19; assay: as above; format: cell-based; settings: Proteus vulgaris, HX19, 16 h, P. vulgaris HX-19; 10^6 CFU/ml; read-out: Minimum Inhibitory Concentration (MIC)
Summary of the method: as §1

[12] = system: P. vulgaris No. 33; assay: as above; format: cell-based; settings: Proteus vulgaris, 10^6 CFU/ml
Summary of the method: as §1

[13] = system: S. aureus 209P NIHJ-JC1; assay: as above; format: cell-based; settings: Staphylococcus aureus, 16 h, 10^6 CFU/ml, 37° C., 16 hours
Summary of the method: as §1

[14] = system: S. marcescens IAM 1184; assay: as above; format: cell-based; settings: Serratia marcescens, IAM1184, 16 h, read-out: Minimum Inhibitory Concentration (MIC)
Summary of the method: as §1

[15] = system: S. marcescens No. 16-2; assay: as above; format: cell-based; settings: Serratia marcescens, NO.162, 16 h
Summary of the method: as §1

[16] = system: Ps. aeruginosa AK 109; assay: as above; format: cell-based, Pseudomonas aeruginosa; settings: Pseudomonas aeruginosa, AK109, 16 h, Ps. aeruginosa AK 109; 10^6 CFU/ml; read-out: Minimum Inhibitory Concentration (MIC)
Summary of the method: as §1

[17] = system: Ps. aeruginosa AKR17; assay: as above; format: cell-based, Pseudomonas aeruginosa; settings: Pseudomonas aeruginosa, 16 h; Ps. aeruginosa AKR17; 10^6 CFU/ml; read-out: Minimum Inhibitory Concentration (MIC)
Summary of the method: as §1

[18] = system: Ps. aeruginosa IF03445; assay: as above; format: cell-based, Pseudomonas aeruginosa; settings: Pseudomonas aeruginosa, 10^6 CFU/ml
Summary of the method: as §1

[19] = system: Ps. cepacia 23; assay: as above; format: cell-based, Pseudomonas cepacia; settings: read-out: Minimum Inhibitory Concentration (MIC)
Summary of the method: as §1

[20] = system: A. calcoaceticus No. 4; assay: as above; format: cell-based, Acinetobacter calcoaceticus; settings: Acinetobacter calcoaceticus, NO.4, 16 h, 10^6 CFU/ml
Summary of the method: as §1

[21] = *E. cloacae Nek 39, lactamase-producing strain, read-out: Minimum Inhibitory Concentration (MIC)
[22] = S. aureus 209P NIHJ-JC1, read-out: Minimum Inhibitory Concentration (MIC)
[23] = 16 h, Ps. aeruginosa IF03445, read-out: Minimum Inhibitory Concentration (MIC)
[24] = Burkholderia cepacia, 16 h, Ps. cepacia 23, 10^6 CFU/ml
[25] = A. calcoaceticus No. 4, read-out: Minimum Inhibitory Concentration (MIC)
[26] = Enterobacter cloacae, 963, 16 h, read-out: Minimum Inhibitory Concentration (MIC), E. cloacae 963
[27] = NIHJJC2, 16 h, read-out: Minimum Inhibitory Concentration (MIC), E. coli NIHJ JC2, 10^6 CFU/ml, 37° C.
[28] = GN10650, 16 h, read-out: Minimum Inhibitory Concentration (MIC), *K. oxytoca GN10650, lactamase-producing strain
[29] = NO.42, 16 h, read-out: Minimum Inhibitory Concentration (MIC), *K. pneumoniae No. 42, lactamase-producing strain
[30] = read-out: Minimum Inhibitory Concentration (MIC), K. pneumoniae PCI-602
[31] = NO.33, 16 h, read-out: Minimum Inhibitory Concentration (MIC), *P. vulgaris No. 33, lactamase-producing strain
[32] = read-out: Minimum Inhibitory Concentration (MIC), S. aureus 209P NIHJ-JC1
[33] = read-out: Minimum Inhibitory Concentration (MIC), *S. marcescens No. 16-2, lactamase-producing strain, 10^6 CFU/ml
[34] = read-out: Minimum Inhibitory Concentration (MIC), A. calcoaceticus No. 4
[35] = read-out: Minimum Inhibitory Concentration (MIC), *E. cloacae Nek 39, lactamase-producing strain

SMILES | MIC [1] | MIC [2] | MIC [4, 21] | MIC [5] | MIC [10] | MIC [11] | MIC [13, 22] | MIC [16] | MIC [17] | MIC [18, 23] | MIC [19, 24] | MIC [20, 25] | MIC [3, 26] | MIC [6, 27] | MIC [7, 28] | MIC [8, 29] | MIC [9, 30] | MIC [12, 31] | MIC [13, 32] | MIC [14] | further results
CO/N=C(\C(=O)N[C@@H]1C(=O)N2C(C(=O)O)=C(CSc3nnc(-c4ccc(O)cc4)s3)CS[C@H]12)c1csc(N)n1 [compound 7, 7β-[2-(2-aminothiazol-4-yl)-2methoxyiminoacetamido]-3-[5-(4-hydroxyphenyl-1,3,4-thiadiazol-2-yl)thiomethyl-3-cephem-4-carboxylic acid trifluoroacetate, reference compound] | 0.2 µg/mL | 0.2 µg/mL | 3.12 µg/mL | 0.78 µg/mL | 0.78 µg/mL | < 0.006 µg/mL | 0.39 µg/mL | 25 µg/mL | > 100 µg/mL | 25 µg/mL | 3.12 µg/mL | 1.56 µg/mL | – | – | – | – | – | – | – | – | MIC ([3]; Enterobacter cloacae, 16 h, E. cloacae 963, read-out: Minimum Inhibitory Concentration (MIC)): 1.56 µg/mL; MIC ([6]; NIHJJC2, E. coli NIHJ JC2, 10^6 CFU/ml, 37° C., 16 hours, read-out: Minimum Inhibitory Concentration (MIC)): 0.39 µg/mL; MIC ([7]; 16 h, *K. oxytoca GN10650, lactamase-producing strain, read-out: Minimum Inhibitory Concentration (MIC)): 3.12 µg/mL; MIC ([8]; 16 h, *K. pneumoniae No. 42, lactamase-producing strain, read-out: Minimum Inhibitory Concentration (MIC)): 1.56 µg/mL; MIC ([9]; K. pneumoniae PCI-602, read-out: Minimum Inhibitory Concentration (MIC)): < 0.006 µg/mL; MIC ([12]; 16 h, *P. vulgaris No. 33, lactamase-producing strain, read-out: Minimum Inhibitory Concentration (MIC)): 1.56 µg/mL; MIC ([14]; S. marcescens IAM 1184, 10^6 CFU/ml): 0.39 µg/mL; MIC ([15]; *S. marcescens No. 16-2, lactamase-producing strain, 10^6 CFU/ml, read-out: Minimum Inhibitory Concentration (MIC)): 3.12 µg/mL
CC(C)(O/N=C(\C(=O)N[C@@H]1C(=O)N2C(C(=O)O)=C(CSc3nnc(-c4ccc(O)cc4)s3)CS[C@H]12)c1csc(N)n1)C(=O)O [compound 8, disodium 7β-[2-(2-aminothiazol-4-yl)-2-(1-carboxylate-1-methylethoxyimino)acetamido]-3-[5-(4-hydroxyphenyl)-1,3,4-thiadiazol-2-yl)thiomethyl-3-cephem-4-carboxylate, reference compound] | 0.78 µg/mL | 0.78 µg/mL | 25 µg/mL | 3.12 µg/mL | 1.56 µg/mL | < 0.006 µg/mL | – | 25 µg/mL | > 100 µg/mL | 25 µg/mL | – | – | 6.25 µg/mL | 3.12 µg/mL | 6.25 µg/mL | 3.12 µg/mL | 0.1 µg/mL | 0.2 µg/mL | 6.25 µg/mL | 0.78 µg/mL | MIC [15, 33]: 6.25 µg/mL; MIC ([19]; Burkholderia cepacia, 23, 16 h): 6.25 µg/mL; MIC [20, 34]: 3.12 µg/mL
C#CCO/N=C(\C(=O)N[C@@H]1C(=O)N2C(C(=O)O)=C(CSc3nnc(-c4ccc(O)c(O)c4)o3)CS[C@H]12)c1csc(N)n1 [compound 9, sodium 7β-[2-(2-aminothiazol-4-yl)-2-(2-propynyloxyimino)acetamido]-3-[5-(3,4-dihydroxyphenyl)-1,3,4-oxadiazol-2-yl]thiomethyl-3-cephem-4carboxylate] | 0.0125 µg/mL | 0.0125 µg/mL | – | 0.39 µg/mL | 0.0125 µg/mL | < 0.006 µg/mL | – | 0.2 µg/mL | > 100 µg/mL | – | 0.05 µg/mL | – | 0.0125 µg/mL | 0.1 µg/mL | 6.25 µg/mL | 0.025 µg/mL | 0.0125 µg/mL | 0.025 µg/mL | 0.78 µg/mL | 0.0125 µg/mL | MIC [4, 35]: 0.1 µg/mL; MIC [15, 33]: 6.25 µg/mL; MIC ([18]; IF03445, 16 h, read-out: Minimum Inhibitory Concentration (MIC), Ps. aeruginosa IF03445): 1.56 µg/mL; MIC [20, 34]: 0.1 µg/mL
CO/N=C(\C(=O)N[C@@H]1C(=O)N2C(C(=O)O)=C(CSc3nc(-c4ccccc4)cs3)CS[C@H]12)c1csc(N)n1 [compound 9, sodium 7μ-[2-(2-aminothiazol-4-yl)-2-methoxyiminoacetamido]-3-(4-phenylthiazol-2-yl)-thiomethyl-3-cephem-4-carboxylate, reference compound] | 0.78 µg/mL | 0.39 µg/mL | – | 0.39 µg/mL | 0.78 µg/mL | < 0.006 µg/mL | 0.1 µg/mL | 25 µg/mL | > 100 µg/mL | 25 µg/mL | – | 25 µg/mL | 1.56 µg/mL | 0.78 µg/mL | 3.12 µg/mL | 1.56 µg/mL | < 0.006 µg/mL | 0.78 µg/mL | – | 0.39 µg/mL | MIC [4, 35]: 3.12 µg/mL; MIC ([15]; read-out: Minimum Inhibitory Concentration (MIC)): 3.12 µg/mL; MIC ([19]; Burkholderia cepacia, 23, 16 h): 3.12 µg/mL
